A word on the Ki: it is the equilibrium dissociation constant of an inhibitor or competing ligand from its target. The inhibition is the change of the read-out against control, counted positive when it falls. The term IC50 denotes the concentration that inhibits the measured activity by half. The term pKi denotes the Ki on a negative log10 scale, so that one unit is a factor of ten.

Series [1] addresses Substance-K receptor (Homo sapiens) (UniProt P21452). In words: NK2 (h) Eurofins-Cerep binding assay. As to conditions: filed as agonist, Compound concentration 10.0 uM; call rule not given here. The arrangement: ligand concentration 0.1 nM.
For series [2], the target named is T1, GABA-A receptor; anion channel (Rattus norvegicus) (UniProt O09028+P15431+P18506+P18508+P19969+P20236+P23574+P23576+P28471+P28473+P30191+P62813+P63079+P63138+Q91ZM7+Q9ES14). Description: GABA (non-selective) Eurofins-Cerep binding assay. The class given is protein-complex assay. The arrangement: ligand concentration 10 nM. As to conditions: filed as agonist, Compound concentration 10.0 uM.

The target in series [3] is Vasopressin V1a receptor (Homo sapiens) (UniProt P37288). In words: V1 a (h) Eurofins-Cerep binding assay. The arrangement: ligand concentration 0.3 nM. The settings on record: filed as agonist, Compound concentration 10.0 uM.
The target in series [4] is Somatostatin receptor (Mus musculus) (UniProt P30935+O08858+P30875+P30873+P49660). Description: sst (non-selective) Eurofins-Cerep binding assay. The settings on record: filed as agonist, Compound concentration 10.0 uM. The arrangement: ligand concentration 0.05 nM. The series is classed as protein assay.
Series [5] concerns the target Endothelin-1 receptor (Homo sapiens) (UniProt P25101). Description: ETA (h) Eurofins-Cerep binding assay. Details: ligand concentration 0.03 nM. As to conditions: filed as agonist, Compound concentration 10.0 uM.
In series [6] the target is Type-1 angiotensin II receptor (Homo sapiens) (UniProt P30556). Description: AT1 (h) Eurofins-Cerep binding assay. Details: ligand concentration 0.05 nM. The settings on record: filed as antagonist, Compound concentration 10.0 uM.
Chain of Type-1 angiotensin II receptor (Homo sapiens) (P30556 whole entry): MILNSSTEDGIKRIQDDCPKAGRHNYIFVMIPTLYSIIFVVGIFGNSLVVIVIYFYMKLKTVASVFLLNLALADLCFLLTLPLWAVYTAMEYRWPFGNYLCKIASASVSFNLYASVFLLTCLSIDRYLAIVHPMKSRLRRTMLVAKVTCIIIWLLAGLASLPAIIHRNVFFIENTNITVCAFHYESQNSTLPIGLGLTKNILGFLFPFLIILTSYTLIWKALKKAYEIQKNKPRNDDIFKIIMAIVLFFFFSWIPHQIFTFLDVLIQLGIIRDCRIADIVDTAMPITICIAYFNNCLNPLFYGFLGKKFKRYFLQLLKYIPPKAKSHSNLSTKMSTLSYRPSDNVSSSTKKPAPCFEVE
Series [7] addresses T2, 5-hydroxytryptamine receptor 5A (Homo sapiens, UniProt P47898). In words: GPCRScan assay: inhibition of 5-HT5A. The arrangement: radioligand conc. used [nm] 2.0 - 3.3, parental cells Flp-In CHO.
The target in series [8] is Adrenergic receptor alpha-1 (Rattus norvegicus) (UniProt P15823+P23944+P43140). Description: Alpha1 (non-selective) Eurofins-Cerep binding assay. The settings on record: filed as antagonist, Compound concentration 10.0 uM. Details: ligand concentration 0.25 nM. The class given is protein assay.
Series [9] addresses Muscarinic acetylcholine receptor M3 (Homo sapiens) (UniProt P20309). In words: M3 (h) Eurofins-Cerep binding assay. The settings on record: filed as antagonist, Compound concentration 10.0 uM. Details: ligand concentration 0.2 nM.
The species named for series [10] is Rattus norvegicus. In words: SKCa channel Eurofins-Cerep binding assay. The arrangement: ligand concentration 0.007 nM. As to conditions: filed as antagonist, Compound concentration 10.0 uM.
For series [11], the target named is Delta-type opioid receptor (Homo sapiens, UniProt P41143). Description: delta (DOP) (h) Eurofins-Cerep binding assay. Details: ligand concentration 0.5 nM. As to conditions: filed as agonist, Compound concentration 10.0 uM.
Series [12] is filed under the species Rattus norvegicus. Description: KV channel Eurofins-Cerep binding assay. The settings on record: filed as antagonist, Compound concentration 10.0 uM.
In series [13] the target is T2, 5-hydroxytryptamine receptor 5A. In words: 5-HT5a (h) Eurofins-Cerep binding assay. The arrangement: ligand concentration 1.5 nM. As to conditions: filed as agonist, Compound concentration 10.0 uM.
Series [14] addresses Na+ channel (site 2) (Rattus norvegicus, UniProt F1LQQ7+O08562+O88420+O88457+P04774+P04775+P08104+P15389+P15390+Q62968). Description: Na+ channel (site 2) Eurofins-Cerep binding assay. The class given is protein assay. The arrangement: incubation time 60 min, incubation temperature 37°C, ligand concentration 10 nM. As to conditions: rat cerebral cortex, probe [3H]batrachotoxin, compound concentration 10 uM, read-out: % Inhibition of Control Specific Binding (Mean n=2).

In series [15] the target is Cannabinoid receptor 1 (Homo sapiens) (UniProt P21554). Description: CB1 (h) Eurofins-Cerep binding assay. The arrangement: ligand concentration 0.5 nM. The settings on record: filed as agonist, Compound concentration 10.0 uM.
Chain of Cannabinoid receptor 1 (Homo sapiens) (P21554 whole entry): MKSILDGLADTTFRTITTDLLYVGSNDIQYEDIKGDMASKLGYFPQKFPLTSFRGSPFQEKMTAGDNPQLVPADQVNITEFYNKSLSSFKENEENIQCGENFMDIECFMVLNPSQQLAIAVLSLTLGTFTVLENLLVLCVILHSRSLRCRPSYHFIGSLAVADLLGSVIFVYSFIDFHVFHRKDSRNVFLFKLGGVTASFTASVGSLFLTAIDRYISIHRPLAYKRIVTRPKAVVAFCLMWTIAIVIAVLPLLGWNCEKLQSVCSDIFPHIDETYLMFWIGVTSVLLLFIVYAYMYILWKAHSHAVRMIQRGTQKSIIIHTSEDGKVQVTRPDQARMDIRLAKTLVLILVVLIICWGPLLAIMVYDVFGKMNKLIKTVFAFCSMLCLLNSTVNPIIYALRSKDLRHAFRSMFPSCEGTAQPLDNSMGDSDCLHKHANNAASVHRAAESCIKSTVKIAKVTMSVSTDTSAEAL
In series [16] the target is D(1B) dopamine receptor (Homo sapiens) (UniProt P21918). As to conditions: Compound concentration 10.0 uM.
Series [17] deals with Histamine H2 receptor (Homo sapiens) (UniProt P25021). The settings on record: Compound concentration 10.0 uM.
Chain of Histamine H2 receptor (Homo sapiens) (P25021 whole entry): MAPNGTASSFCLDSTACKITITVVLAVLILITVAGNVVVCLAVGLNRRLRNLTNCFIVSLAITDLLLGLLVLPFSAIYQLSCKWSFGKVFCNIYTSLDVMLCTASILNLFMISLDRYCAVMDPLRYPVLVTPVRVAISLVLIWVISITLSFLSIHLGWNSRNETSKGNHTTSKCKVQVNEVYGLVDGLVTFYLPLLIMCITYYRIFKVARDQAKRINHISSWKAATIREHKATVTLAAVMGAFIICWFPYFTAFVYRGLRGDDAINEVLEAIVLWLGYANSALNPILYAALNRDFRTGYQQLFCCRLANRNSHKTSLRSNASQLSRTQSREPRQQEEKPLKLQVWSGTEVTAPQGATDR
The target of series [18] is 5-hydroxytryptamine receptor 2A (Homo sapiens) (UniProt P28223). In words: 5-HT2A (h) Eurofins-Cerep binding assay. Details: ligand concentration 0.5 nM. The settings on record: filed as antagonist, Compound concentration 10.0 uM.
Chain of 5-hydroxytryptamine receptor 2A (Homo sapiens) (P28223 whole entry): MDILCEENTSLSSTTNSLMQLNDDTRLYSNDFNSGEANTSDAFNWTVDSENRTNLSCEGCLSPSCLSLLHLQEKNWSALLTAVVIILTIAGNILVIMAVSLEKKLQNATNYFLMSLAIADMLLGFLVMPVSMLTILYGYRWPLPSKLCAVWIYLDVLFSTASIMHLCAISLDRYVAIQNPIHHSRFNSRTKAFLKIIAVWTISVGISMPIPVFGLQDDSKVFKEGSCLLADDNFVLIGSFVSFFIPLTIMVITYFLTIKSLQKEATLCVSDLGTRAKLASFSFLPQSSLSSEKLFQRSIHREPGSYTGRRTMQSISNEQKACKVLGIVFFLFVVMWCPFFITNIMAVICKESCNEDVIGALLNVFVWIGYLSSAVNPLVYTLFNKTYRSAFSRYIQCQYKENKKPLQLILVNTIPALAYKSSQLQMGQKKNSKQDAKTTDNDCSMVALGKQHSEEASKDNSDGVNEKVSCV
Series [19] has as its target Prostaglandin E2 receptor EP4 subtype (Homo sapiens) (UniProt P35408). In words: EP4 (h) Eurofins-Cerep binding assay. The settings on record: filed as agonist, Compound concentration 10.0 uM. The arrangement: ligand concentration 0.5 nM.
For series [20], the target named is C-C chemokine receptor type 1 (Homo sapiens) (UniProt P32246). In words: CCR1 (h) Eurofins-Cerep binding assay. The arrangement: ligand concentration 0.01 nM. As to conditions: filed as agonist, Compound concentration 10.0 uM.
Series [21] deals with 5-hydroxytryptamine receptor 2B (Homo sapiens) (UniProt P41595). Description: 5-HT2B (h) Eurofins-Cerep binding assay. The arrangement: ligand concentration 0.2 nM. As to conditions: filed as agonist, Compound concentration 10.0 uM.
Chain of 5-hydroxytryptamine receptor 2B (Homo sapiens) (P41595 whole entry): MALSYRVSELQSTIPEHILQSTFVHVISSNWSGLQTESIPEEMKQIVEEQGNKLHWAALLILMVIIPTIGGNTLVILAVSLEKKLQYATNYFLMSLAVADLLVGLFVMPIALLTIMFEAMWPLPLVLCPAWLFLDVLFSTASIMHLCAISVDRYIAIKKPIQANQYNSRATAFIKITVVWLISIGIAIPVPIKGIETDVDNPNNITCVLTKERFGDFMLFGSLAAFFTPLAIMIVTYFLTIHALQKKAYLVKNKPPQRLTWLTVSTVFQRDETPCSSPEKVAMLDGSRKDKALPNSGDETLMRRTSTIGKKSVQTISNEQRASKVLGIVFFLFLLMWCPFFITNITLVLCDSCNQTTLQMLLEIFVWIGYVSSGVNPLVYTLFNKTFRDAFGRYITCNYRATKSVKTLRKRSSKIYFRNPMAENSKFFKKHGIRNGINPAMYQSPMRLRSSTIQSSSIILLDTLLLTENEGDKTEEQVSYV
In series [22] the target is Vasoactive intestinal polypeptide receptor 1 (Homo sapiens) (UniProt P32241). Description: VPAC1 (VIP1) (h) Eurofins-Cerep binding assay. The arrangement: ligand concentration 0.04 nM. The settings on record: filed as agonist, Compound concentration 10.0 uM.
In series [23] the target is T3, Muscarinic acetylcholine receptor M2 (Homo sapiens) (UniProt P08172).
T3 sequence (whole entry): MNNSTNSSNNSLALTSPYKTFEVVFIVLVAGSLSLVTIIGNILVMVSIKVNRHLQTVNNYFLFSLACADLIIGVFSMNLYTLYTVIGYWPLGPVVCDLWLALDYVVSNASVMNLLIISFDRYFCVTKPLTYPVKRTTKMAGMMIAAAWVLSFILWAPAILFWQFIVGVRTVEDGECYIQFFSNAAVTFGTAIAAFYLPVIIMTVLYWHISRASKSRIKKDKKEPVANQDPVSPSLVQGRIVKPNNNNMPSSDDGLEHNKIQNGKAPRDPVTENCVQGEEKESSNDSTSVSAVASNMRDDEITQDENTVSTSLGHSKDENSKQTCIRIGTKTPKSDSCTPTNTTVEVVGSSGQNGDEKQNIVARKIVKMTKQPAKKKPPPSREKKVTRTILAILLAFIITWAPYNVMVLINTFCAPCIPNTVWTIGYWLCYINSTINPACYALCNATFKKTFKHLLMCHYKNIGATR
Description: M2 (h) Eurofins-Cerep binding assay. The arrangement: ligand concentration 2 nM. As to conditions: filed as antagonist, Compound concentration 10.0 uM.

The target of series [24] is Muscarinic acetylcholine receptor M3 (Homo sapiens) (UniProt P20309). As to conditions: Compound concentration 10.0 uM.
Chain of Muscarinic acetylcholine receptor M3 (Homo sapiens) (P20309 whole entry, looked up): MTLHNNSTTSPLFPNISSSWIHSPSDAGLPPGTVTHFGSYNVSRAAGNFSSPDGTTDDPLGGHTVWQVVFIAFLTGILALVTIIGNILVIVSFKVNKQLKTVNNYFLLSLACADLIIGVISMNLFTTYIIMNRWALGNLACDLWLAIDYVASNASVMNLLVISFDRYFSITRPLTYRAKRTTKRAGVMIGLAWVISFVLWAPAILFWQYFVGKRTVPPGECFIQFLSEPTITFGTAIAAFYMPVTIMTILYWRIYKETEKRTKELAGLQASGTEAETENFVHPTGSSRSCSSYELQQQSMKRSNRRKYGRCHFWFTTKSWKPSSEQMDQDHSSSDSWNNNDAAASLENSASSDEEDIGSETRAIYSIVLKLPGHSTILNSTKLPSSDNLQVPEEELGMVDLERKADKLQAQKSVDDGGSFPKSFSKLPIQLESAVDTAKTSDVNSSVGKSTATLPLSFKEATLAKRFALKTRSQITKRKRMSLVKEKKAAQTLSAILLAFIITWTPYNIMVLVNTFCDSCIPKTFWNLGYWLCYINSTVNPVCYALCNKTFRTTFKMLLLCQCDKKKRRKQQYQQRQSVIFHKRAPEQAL
For series [25], the target named is Adenosine receptor A1 (Homo sapiens) (UniProt P30542). In words: A1 (h) Eurofins-Cerep binding assay. The arrangement: ligand concentration 1 nM. The settings on record: filed as antagonist, Compound concentration 10.0 uM.
Series [26] addresses D(2) dopamine receptor (Homo sapiens) (UniProt P14416). In words: D2S (h) Eurofins-Cerep binding assay. Details: ligand concentration 0.3 nM. As to conditions: filed as antagonist, Compound concentration 10.0 uM.
Series [27] addresses Neurotensin receptor type 1 (Homo sapiens) (UniProt P30989). Description: NTS1 (NT1) (h) Eurofins-Cerep binding assay. The settings on record: filed as agonist, Compound concentration 10.0 uM. Details: ligand concentration 0.05 nM.
Series [28] addresses Kappa-type opioid receptor (Homo sapiens) (UniProt P41145). Description: kappa (h) (KOP) Eurofins-Cerep binding assay. Details: ligand concentration 0.5 nM. As to conditions: filed as agonist, Compound concentration 10.0 uM.
For series [29], the target named is Beta-1 adrenergic receptor (Homo sapiens) (UniProt P08588). In words: Beta1 (h) Eurofins-Cerep binding assay. Details: ligand concentration 0.3 nM. As to conditions: filed as agonist, Compound concentration 10.0 uM.
Series [30] has as its target Histamine H2 receptor (Homo sapiens) (UniProt P25021). Description: H2 (h) Eurofins-Cerep binding assay. The arrangement: ligand concentration 0.075 nM. The settings on record: filed as antagonist, Compound concentration 10.0 uM.
For series [31], the target named is T1, GABA-A receptor; anion channel (Rattus norvegicus). In words: Cl- channel (GABA-gated) Eurofins-Cerep binding assay. The series is classed as protein-complex assay. The arrangement: ligand concentration 3 nM. The settings on record: filed as antagonist, Compound concentration 10.0 uM.
Series [32] has as its target Adrenergic receptor alpha-2 (Rattus norvegicus) (UniProt P22086+P19328+P22909). Description: Alpha2 (non-selective) Eurofins-Cerep binding assay. The class given is protein assay. The arrangement: ligand concentration 1 nM. The settings on record: filed as antagonist, Compound concentration 10.0 uM.
In series [33] the target is Kappa-type opioid receptor (Homo sapiens) (UniProt P41145). The settings on record: Compound concentration 10.0 uM.
Chain of Kappa-type opioid receptor (Homo sapiens) (P41145 whole entry): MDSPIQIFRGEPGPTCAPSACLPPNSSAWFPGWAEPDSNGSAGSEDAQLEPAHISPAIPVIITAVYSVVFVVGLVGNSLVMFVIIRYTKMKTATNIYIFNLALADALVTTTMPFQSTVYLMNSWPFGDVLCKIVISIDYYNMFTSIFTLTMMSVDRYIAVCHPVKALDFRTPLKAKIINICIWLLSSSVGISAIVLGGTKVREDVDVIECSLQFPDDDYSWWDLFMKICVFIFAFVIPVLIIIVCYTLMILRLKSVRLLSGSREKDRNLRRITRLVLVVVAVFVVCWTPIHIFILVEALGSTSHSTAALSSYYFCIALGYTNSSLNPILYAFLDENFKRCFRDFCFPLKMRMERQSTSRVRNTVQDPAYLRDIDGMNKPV
The target in series [34] is 5-hydroxytryptamine receptor 1E (Homo sapiens, UniProt P28566). The settings on record: Compound concentration 10.0 uM.
Series [35] addresses Monocarboxylate transporter 4 (Homo sapiens, UniProt O15427). In words: Lactate efflux inhibition assay (MDA-MB-231).
Series [36] can be described thus: GPCRScan assay: inhibition of GABA/PBR. Details: species or system Rattus norvegicus; radioligand conc. used [nm] 0.3 – 2.0, parental cells brain tissue.
Series [37] has as its target Sigma intracellular receptor 2 (Homo sapiens) (UniProt Q5BJF2). As to conditions: Compound concentration 10.0 uM.
For series [38], the target named is Monocarboxylate transporter 1/4 (Homo sapiens, UniProt P53985+O15427). Description: Lactate efflux inhibition assay (MiaPaCa2 ). The series is classed as protein assay.
Series [39] has as its target Monocarboxylate transporter 1 (Homo sapiens, UniProt P53985). In words: Lactate efflux inhibition assay (SNU-398).
The target of series [40] is 5-hydroxytryptamine receptor 1B (Homo sapiens) (UniProt P28222). As to conditions: Compound concentration 10.0 uM.
Chain of 5-hydroxytryptamine receptor 1B (Homo sapiens) (P28222 whole entry): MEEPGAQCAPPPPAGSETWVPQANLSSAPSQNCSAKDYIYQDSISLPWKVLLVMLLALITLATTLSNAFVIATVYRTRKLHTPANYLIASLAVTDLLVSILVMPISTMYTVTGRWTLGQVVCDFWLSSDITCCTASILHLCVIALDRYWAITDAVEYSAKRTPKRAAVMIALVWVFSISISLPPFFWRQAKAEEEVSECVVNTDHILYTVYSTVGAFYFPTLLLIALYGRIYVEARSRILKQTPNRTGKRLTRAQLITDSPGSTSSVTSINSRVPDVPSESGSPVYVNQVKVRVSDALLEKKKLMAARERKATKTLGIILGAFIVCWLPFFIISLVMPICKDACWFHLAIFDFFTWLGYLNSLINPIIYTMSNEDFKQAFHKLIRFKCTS

T2 sequence (P47898 whole entry): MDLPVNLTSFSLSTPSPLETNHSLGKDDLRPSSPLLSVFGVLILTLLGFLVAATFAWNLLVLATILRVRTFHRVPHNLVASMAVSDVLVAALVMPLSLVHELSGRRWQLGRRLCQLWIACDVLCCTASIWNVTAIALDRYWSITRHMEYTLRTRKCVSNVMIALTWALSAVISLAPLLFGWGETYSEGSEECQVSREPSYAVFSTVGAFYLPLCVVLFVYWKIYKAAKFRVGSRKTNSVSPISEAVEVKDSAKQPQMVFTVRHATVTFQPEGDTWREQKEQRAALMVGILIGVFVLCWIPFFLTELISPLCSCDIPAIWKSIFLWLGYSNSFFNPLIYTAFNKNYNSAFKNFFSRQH
Chain of Endothelin-1 receptor (Homo sapiens) (P25101 whole entry): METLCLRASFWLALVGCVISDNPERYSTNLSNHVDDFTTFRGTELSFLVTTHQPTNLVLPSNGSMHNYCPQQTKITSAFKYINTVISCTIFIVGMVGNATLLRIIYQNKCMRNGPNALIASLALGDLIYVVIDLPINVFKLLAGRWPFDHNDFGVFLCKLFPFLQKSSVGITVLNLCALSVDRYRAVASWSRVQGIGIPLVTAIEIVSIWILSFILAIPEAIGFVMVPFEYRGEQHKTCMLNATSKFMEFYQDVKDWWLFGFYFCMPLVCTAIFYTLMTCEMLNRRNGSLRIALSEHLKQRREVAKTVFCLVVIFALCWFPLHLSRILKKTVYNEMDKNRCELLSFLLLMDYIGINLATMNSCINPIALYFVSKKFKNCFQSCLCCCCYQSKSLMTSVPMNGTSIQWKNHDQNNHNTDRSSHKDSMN
Chain of D(2) dopamine receptor (Homo sapiens) (P14416 whole entry): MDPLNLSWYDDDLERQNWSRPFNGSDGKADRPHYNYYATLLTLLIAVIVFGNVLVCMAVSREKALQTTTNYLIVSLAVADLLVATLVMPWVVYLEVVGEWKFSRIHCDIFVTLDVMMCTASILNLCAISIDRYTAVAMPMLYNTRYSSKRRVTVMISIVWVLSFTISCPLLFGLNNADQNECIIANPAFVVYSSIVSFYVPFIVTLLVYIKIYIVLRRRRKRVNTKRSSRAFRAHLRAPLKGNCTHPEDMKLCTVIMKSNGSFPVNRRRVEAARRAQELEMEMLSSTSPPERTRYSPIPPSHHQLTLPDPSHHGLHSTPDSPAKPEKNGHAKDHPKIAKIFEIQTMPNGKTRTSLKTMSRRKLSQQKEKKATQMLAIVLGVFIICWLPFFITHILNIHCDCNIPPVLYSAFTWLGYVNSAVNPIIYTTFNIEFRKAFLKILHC
Chain of Sigma intracellular receptor 2 (Homo sapiens) (Q5BJF2 whole entry): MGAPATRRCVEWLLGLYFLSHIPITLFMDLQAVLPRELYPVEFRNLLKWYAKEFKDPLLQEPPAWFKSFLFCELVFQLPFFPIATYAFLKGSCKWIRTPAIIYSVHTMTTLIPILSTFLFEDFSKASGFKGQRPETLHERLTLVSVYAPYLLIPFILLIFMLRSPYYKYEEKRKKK

Take `CCOc1ccc(S(=O)(=O)Nc2ccc(Cl)cc2C#Cc2cnc(C(=O)O)cc2OC)c2ncccc12` [MSC-4381]: the % Inhibition of Control Specific Binding (Mean n=2) is 46% in [1]; 1.2% in series [2]; 92.3% in [3]; -21.6% in series [4]; -0.2% in series [5]; 4.2% in series [6]. The % Inhibition of Control Specific Binding (Mean n=2) in [8] was 6.6%; in series [9], 8%; in series [10], -6.7%; in series [11], 11.7%; in series [12] it was -5.9%; in [13], -20.7%. The % Inhibition of Control Specific Binding (Mean n=2) was -11.3% in series [15]; -4.1% in series [18]; 47.2% in [19]; -4.3% in series [20]; -47.1% in series [21]; -3.2% in series [22]. In addition, the % Inhibition of Control Specific Binding (Mean n=2) in [23] is 35.8%; in series [25], 56.2%; in [26], 9.2%; in series [27] it was -10.4%; in [28], -12.1%; in [29], 17.4%. For the same compound, the % Inhibition of Control Specific Binding (Mean n=2) in [30] was -16.1%; in series [31], 59.9%; in series [32], -8.2%. Moreover, the inhibition constant (Ki) in [7] was 1630 nM. Further, the inhibition at 60 min, 10 µM in series [14] was -4.9%. The inhibition was 47.7% in series [16], 24.2% in series [17] and 9.34% in series [24].

For the compound `COc1cc(C(=O)O)ncc1C#Cc1ccccc1NS(=O)(=O)c1cccc2c(N(C)C)ccnc12` [MSC-0516], the inhibition in series [33] is 11%; in series [34], 20.6%; in [37], 25%; in [40] it was 10.6%. Also, the values for the IC50 in [35], in [38] and in series [39] were 506 nM (not active), more than 4000 nM and > 4000 nM (not active), respectively. The Ki in [36] worked out at 734 nM. For the same compound, the negative logarithm of the Ki (pKi) in series [36] amounted to 6.14.

These data come from ChEMBL document CHEMBL4800726, “Data for DCP probe MSC-4381” (2021).
